Experiments:
[1] = biological target: T1, human recombinant histamine H1 receptor (Homo sapiens, UniProt P35367); test: Histamine H1 radioligand binding ([3H]Pyrilamine); details: compound at 1 μM; CHO cells; read-out: Histamine Binding (1 μM) H1, percent inhibition of specific binding
T1 construct: expressed in transfected cells; host or cells: CHO cells
Protocol: To evaluate in radioligand binding assays the activity of compounds of the invention, human recombinant histamine H1 receptor expressed in Chinese hamster ovary (CHO) cells (De Backer, M. D. et al., Biochem. Biophys. Res. Comm. 197(3):1601, 1993) in a modified Tris-HCl buffer (50 mM Tris-HCl, pH 7.4, 2 mM MgCl2, 100 mM NaCl, 250 mM Sucrose) was used. Compounds of the invention were incubated with 1.2 nM [^3H]Pyrilamine for 180 minutes at 25° C. Non-specific binding was estimated in the presence of 1 μM pyrilamine. Receptor proteins were filtered and washed, the filters were then counted to determine [^3H]Pyrilamine specifically bound. Compounds were screened at 1 μM, using 1% DMSO as vehicle. Biochemical assay results are presented as the percent inhibition of specific binding in Table 5.

[2] = biological target: T2, human recombinant serotonin (5-Hydroxytryptamine) 5-HT2C receptor (Homo sapiens, UniProt P28335); test: Serotonin 5-HT2C radioligand binding ([3H]Mesulergine); details: compound at 1 μM; CHO-K1 cells; read-out: Serotonin (1 μM) 5-HT2C, percent inhibition of specific binding
T2 construct: expressed in transfected cells; host or cells: CHO-K1 cells
T2 sequence (P28335 33-458): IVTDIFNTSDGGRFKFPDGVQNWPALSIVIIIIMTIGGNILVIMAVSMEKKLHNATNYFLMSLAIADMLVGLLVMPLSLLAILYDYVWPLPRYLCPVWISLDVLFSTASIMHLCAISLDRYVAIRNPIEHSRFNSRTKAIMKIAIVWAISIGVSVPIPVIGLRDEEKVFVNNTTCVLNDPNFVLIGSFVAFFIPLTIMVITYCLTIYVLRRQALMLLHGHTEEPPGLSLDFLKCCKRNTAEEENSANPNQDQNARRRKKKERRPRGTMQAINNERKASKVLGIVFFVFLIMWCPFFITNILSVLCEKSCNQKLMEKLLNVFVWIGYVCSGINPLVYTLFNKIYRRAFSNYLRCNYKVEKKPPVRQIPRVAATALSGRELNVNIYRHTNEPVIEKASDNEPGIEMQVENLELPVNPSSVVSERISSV
Protocol: To evaluate in radioligand binding assays the activity of compounds of the invention, human recombinant serotonin (5-Hydroxytryptamine) 5-HT2C receptor expressed in Chinese hamster ovary (CHO-K1) cells (Wolf, W. A. and Schutz, J. S., J. Neurochem. 69:1449, 1997) in a modified Tris-HCl buffer (50 mM Tris-HCl, pH 7.4, 0.1% Ascorbic Acid, 10 μM Pargyline) was used. Compounds of the invention were incubated with 1 nM [^3H]Mesulergine for 60 minutes at 25° C. Non-specific binding was estimated in the presence of 1 μM Mianserin. Receptor proteins were filtered and washed, the filters were then counted to determine [^3H]Mesulergine specifically bound. Compounds were screened at 1 μM or lower, using 1% DMSO as vehicle. Biochemical assay results are presented as the percent inhibition of specific binding in Table 7.

[3] = biological target: T3, human recombinant adrenergic α1D receptor (Homo sapiens, UniProt P25100); test: Adrenergic α1D radioligand binding ([3H]Prozosin); details: compound at 1 μM; HEK-293 cells; read-out: Adrenergic (1 μM) α1D, percent inhibition of specific binding
T3 construct: expressed in transfected cells; host or cells: HEK-293 cells
T3 sequence (P25100 1-572): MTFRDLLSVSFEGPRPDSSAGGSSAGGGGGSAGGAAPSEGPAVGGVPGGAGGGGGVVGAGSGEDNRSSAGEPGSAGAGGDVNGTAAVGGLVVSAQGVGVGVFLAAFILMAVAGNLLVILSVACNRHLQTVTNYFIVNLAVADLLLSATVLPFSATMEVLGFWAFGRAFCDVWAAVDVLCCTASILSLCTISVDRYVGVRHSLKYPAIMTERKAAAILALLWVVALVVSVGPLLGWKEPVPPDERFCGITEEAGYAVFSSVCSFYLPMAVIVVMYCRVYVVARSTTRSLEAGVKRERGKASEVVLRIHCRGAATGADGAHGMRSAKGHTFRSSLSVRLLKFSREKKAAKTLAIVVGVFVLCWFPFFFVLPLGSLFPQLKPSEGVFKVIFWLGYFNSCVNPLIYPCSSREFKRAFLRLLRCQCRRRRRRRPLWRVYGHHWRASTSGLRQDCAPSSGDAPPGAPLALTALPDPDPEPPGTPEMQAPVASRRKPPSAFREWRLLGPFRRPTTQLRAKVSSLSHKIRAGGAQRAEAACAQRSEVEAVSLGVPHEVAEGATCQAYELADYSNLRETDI
Protocol: To evaluate in radioligand binding assays the activity of compounds of the invention, human recombinant adrenergic α1D receptor expressed in human embryonic kidney (HEK-293) cells (Kenny, B. A. et al. Br. J. Pharmacol. 115(6):981, 1995) in a 50 mM Tris-HCl buffer, pH 7.4, was used. Compounds of invention were incubated with 0.6 nM [^3H]Prozosin for 60 minutes at 25° C. Non-specific binding was estimated in the presence of 10 μM phentolamine. Receptor proteins were filtered and washed, the filters were then counted to determine [^3H]Prozosin specifically bound. Compounds were screened at 1 μM or lower, using 1% DMSO as vehicle. Biochemical assay results are presented as the percent inhibition of specific binding in Table 6.

[4] = biological target: T4, human recombinant histamine H2 receptor (Homo sapiens, UniProt P25021); test: Histamine H2 radioligand binding ([125I]aminopotentidine); details: compound at 1 μM; CHO K1 cells; read-out: Histamine Binding (1 μM) H2, percent inhibition of specific binding
T4 construct: expressed in transfected cells; host or cells: CHO-K1 cells
T4 sequence (P25021 whole entry): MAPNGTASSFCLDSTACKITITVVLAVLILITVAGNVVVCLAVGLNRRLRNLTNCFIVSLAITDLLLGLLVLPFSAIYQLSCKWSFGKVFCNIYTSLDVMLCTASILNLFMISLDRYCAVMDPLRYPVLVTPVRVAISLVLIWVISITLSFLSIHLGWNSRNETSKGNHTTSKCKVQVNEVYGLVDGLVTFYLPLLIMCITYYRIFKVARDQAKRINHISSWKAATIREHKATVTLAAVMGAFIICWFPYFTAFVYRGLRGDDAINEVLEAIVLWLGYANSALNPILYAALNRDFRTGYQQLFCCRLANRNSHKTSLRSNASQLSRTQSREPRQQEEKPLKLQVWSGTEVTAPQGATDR
Protocol: To evaluate in radioligand binding assays the activity of compounds of the invention, human recombinant histamine H2 receptor expressed in Chinese hamster ovary (CHO) K1 cells (Ruat, M., Proc. Natl. Acad. Sci. USA. 87(5):1658, 1990) in a 50 mM Phosphate buffer, pH 7.4 was used. Compounds of the invention were incubated with 0.1 nM [^125I]aminopotentidine for 120 minutes at 25° C. Non-specific binding was estimated in the presence of 3 μM Tiotidine. Receptor proteins were filtered and washed, the filters were then counted to determine [^125I]Aminopotentidine specifically bound. Compounds were screened at 1 μM, using 1% DMSO as vehicle. Biochemical assay results are presented as the percent inhibition of specific binding in Table 5.

T1 sequence (P35367 whole entry): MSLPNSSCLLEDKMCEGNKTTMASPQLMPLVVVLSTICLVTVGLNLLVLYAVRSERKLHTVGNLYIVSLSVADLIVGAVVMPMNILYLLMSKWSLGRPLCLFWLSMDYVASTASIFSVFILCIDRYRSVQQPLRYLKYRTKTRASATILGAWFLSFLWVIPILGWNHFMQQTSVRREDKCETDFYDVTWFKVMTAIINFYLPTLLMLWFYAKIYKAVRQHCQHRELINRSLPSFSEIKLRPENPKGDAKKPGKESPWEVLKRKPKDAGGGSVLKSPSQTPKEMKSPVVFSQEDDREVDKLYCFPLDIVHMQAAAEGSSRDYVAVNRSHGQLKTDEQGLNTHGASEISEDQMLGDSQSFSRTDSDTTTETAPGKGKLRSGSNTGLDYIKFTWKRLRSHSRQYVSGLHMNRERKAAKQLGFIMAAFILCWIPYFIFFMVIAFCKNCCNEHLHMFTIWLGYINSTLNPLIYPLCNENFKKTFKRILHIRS

SMILES	inhibition at 1 µM [1] [%]	inhibition at 1 µM [2] [%]	inhibition at 1 µM [3] [%]	inhibition at 1 µM [4] [%]
Cc1ccc2c(c1)c1c(n2CC(=O)NC(C)(C)C)CCN(C)C1 [Compound 24, N-tert-butyl-2-(1,2,3,4-tetrahydro-2,8-dimethylpyrido[4,3-b]indol-5-yl)acetamide]	44	21	-4	5
Cc1ccc2c(c1)c1c(n2CC(=O)NCc2ccccc2)CCN(C)C1 [Compound 25, N-benzyl-2-(1,2,3,4-tetrahydro-2,8-dimethylpyrido[4,3-b]indol-5-yl)acetamide]	72	61	22	9
Cc1ccc2c(c1)c1c(n2CC(=O)NCC2CCCCC2)CCN(C)C1 [Compound 26, N-(cyclohexylmethyl)-2-(1,2,3,4-tetrahydro-2,8-dimethylpyrido[4,3-b]indol-5-yl)acetamide]	66	54	32	22
CN1CCc2c(c3cc(Cl)ccc3n2CC(=O)NC2CCCC2)C1 [Compound 27, 2-(8-chloro-1,2,3,4-tetrahydro-2-methylpyrido[4,3-b]indol-5-yl)-N-cyclopentylacetamide]	63	28	18	5
Cc1ccc2c(c1)c1c(n2CCC(=O)NC(C)(C)C)CCN(C)C1 [Compound 28]	21	35	58	18
Cc1ccc2c(c1)c1c(n2CCC(=O)Nc2ccccc2)CCN(C)C1 [Compound 29]	84	73	74	34
Cc1ccc2c(c1)c1c(n2CCC(=O)NCC2CCCCC2)CCN(C)C1 [Compound 30, N-(cyclohexylmethyl)-3-(1,2,3,4-tetrahydro-2,8-dimethylpyrido[4,3-b]indol-5-yl)propanamide]	18	93	73	41
CN1CCc2c(c3cc(Cl)ccc3n2CCC(=O)NC2CCCC2)C1 [Compound 31, 3-(8-chloro-1,2,3,4-tetrahydro-2-methylpyrido[4,3-b]indol-5-yl)-N-cyclopentylpropanamide]	45	76	61	20
CN1CCc2c(c3cc(Cl)ccc3n2CC(N)=O)C1 [Compound 45, 2-(8-chloro-1,2,3,4-tetrahydro-2-methylpyrido[4,3-b]indol-5-yl)acetamide]	82	52	12	3
Cc1ccc2c(c1)c1c(n2CCC(N)=O)CCN(C)C1 [Compound 46, 3-(1,2,3,4-tetrahydro-2,8-dimethylpyrido[4,3-b]indol-5-yl)propanamide]	52	65	7	-5
Cc1ccc2c(c1)c1c(n2CCC(=O)Nc2ccc(F)cc2)CCN(C)C1 [Compound 47, N-(4-fluorophenyl)-3-(1,2,3,4-tetrahydro-2,8-dimethylpyrido[4,3-b]indol-5-yl)propanamide]	90	90	80	53
CN1CCc2c(c3cc(Cl)ccc3n2CC(=O)N(C)C)C1 [Compound 48, 2-(8-chloro-1,2,3,4-tetrahydro-2-methylpyrido[4,3-b]indol-5-yl)-N,N-dimethylacetamide]	73	37	10	4
CN1CCc2c(c3cc(Cl)ccc3n2CCC(=O)N(C)C)C1 [Compound 49, 3-(8-chloro-1,2,3,4-tetrahydro-2-methylpyrido[4,3-b]indol-5-yl)-N,N-dimethylpropanamide]	82	47	18	5
Cc1ccc2c(c1)c1c(n2CCNC(=O)c2ccncc2)CCN(C)C1 [Compound 50, N-(2-(1,2,3,4-tetrahydro-2,8-dimethylpyrido[4,3-b]indol-5-yl)ethyl)isonicotinamide]	47	35	37	9
Cc1ccc2c(c1)c1c(n2CC(=O)Nc2ccc(F)cc2)CCN(C)C1 [Compound 51, N-(4-fluorophenyl)-2-(1,2,3,4-tetrahydro-2,8-dimethylpyrido[4,3-b]indol-5-yl)acetamide]	85	70	29	8
CCCCOC(=O)Cn1c2c(c3cc(Cl)ccc31)CN(C)CC2 [Compound 52, butyl 2-(8-chloro-1,2,3,4-tetrahydro-2-methylpyrido[4,3-b]indol-5-yl)acetate]	98	85	58	23
Cc1ccc2c(c1)c1c(n2CCC(=O)NC(C)C)CCN(C)C1 [Compound 53]	51	51	62	12
Cc1ccc2c(c1)c1c(n2CCC(=O)NCc2ccccc2)CCN(C)C1 [Compound 59, N-benzyl-3-(1,2,3,4-tetrahydro-2,8-dimethylpyrido[4,3-b]indol-5-yl)propanamide]	60	72	56	5
CN1CCc2c(c3cc(Cl)ccc3n2CC(=O)NC2CCCCC2)C1 [Compound 60, 2-(8-chloro-1,2,3,4-tetrahydro-2-methylpyrido[4,3-b]indol-5-yl)-N-cyclohexylacetamide]	50	35	22	3
